Data on seven molecules can be found in US9708321B2, “Spiro-quinazolinone derivatives and their use as positive allosteric modulators of mGluR4” (Merck Patent GmbH, priority 2013, dated 2017).

Each structure is given as a SMILES string. pEC50: −log10 of the molar value. Bounds are passed on as bounds.

T1 sequence (Q14833 33-912): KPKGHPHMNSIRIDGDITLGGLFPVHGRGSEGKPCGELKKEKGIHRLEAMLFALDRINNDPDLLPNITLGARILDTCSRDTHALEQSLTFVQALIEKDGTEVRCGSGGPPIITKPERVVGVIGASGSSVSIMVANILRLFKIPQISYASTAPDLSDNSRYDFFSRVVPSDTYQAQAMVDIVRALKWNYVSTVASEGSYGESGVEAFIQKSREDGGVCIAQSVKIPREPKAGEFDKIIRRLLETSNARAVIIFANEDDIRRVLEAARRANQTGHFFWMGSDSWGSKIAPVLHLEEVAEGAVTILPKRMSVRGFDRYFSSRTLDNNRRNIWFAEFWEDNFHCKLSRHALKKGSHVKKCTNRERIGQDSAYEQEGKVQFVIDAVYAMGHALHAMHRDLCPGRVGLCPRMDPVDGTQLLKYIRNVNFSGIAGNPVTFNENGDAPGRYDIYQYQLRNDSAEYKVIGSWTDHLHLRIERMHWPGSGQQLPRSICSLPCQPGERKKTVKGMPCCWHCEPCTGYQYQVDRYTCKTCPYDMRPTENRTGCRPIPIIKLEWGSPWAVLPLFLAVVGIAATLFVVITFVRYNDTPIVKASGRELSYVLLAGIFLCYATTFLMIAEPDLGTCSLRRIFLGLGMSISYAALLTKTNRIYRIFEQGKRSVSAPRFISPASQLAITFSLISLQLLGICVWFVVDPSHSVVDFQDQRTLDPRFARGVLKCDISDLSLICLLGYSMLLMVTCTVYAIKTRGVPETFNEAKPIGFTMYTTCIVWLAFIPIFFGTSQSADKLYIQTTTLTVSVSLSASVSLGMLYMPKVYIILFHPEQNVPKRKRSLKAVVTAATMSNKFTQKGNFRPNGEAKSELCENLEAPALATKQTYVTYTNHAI

The experiment addresses T1, hmGluR4 (Homo sapiens, UniProt Q14833).
T1 construct: host or cells: HEK293T
The experiment in a line: HEK-293 mGluR4 cells cAMP assay with EC20 L-Glutamate (HTRF). The class given is cell-based. As to conditions: positive allosteric activity at EC20 L-Glutamate, 10 μM Forskolin, HEK293T mGluR4 cells, cAMP HTRF; read-out: hrmGluR4/HEK293T-hmGluR4 (EC50). Summed up:
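PAM mode in mGluR4 HEK293T suspension cells, glutamine-starved overnight; 10 μM forskolin (final) with EC20 L-glutamate (2.3 μM), 2000 cells/well, 30 min at 37 °C. cAMP measured by two-step HTRF after 60 min at room temperature. Basal control EC20 glutamate; EC100 400 μM glutamate (2×).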
`COc1ccc(N2C(=O)c3ccccc3NC23CN(Cc2ccc(Cl)s2)C3)cc1` [Compound 98, 1-((5-Chlorothiophen-2-yl)methyl)-3′-(4-methoxyphenyl)-1′H-spiro[azetidine-3,2′-quinazolin]-4′(3′H)-one]: the pEC50 was 5.00 to 6.00.
For the molecule `COc1ccc(N2C(=O)c3ccccc3NC23CN(Cc2ccccc2OC(F)(F)F)C3)cc1` [Compound 65, 3′-(4-Methoxyphenyl)-1-(2-(trifluoromethoxy)benzyl)-1′H-spiro[azetidine-3,2′-quinazolin]-4′(3′H)-one], the pEC50 was more than 6.00.
The value for `O=C1c2ccc(Br)cc2NC2(CCN(Cc3ccncc3)CC2)N1c1ccc(OC(F)(F)F)cc1` [Compound 97, 7′-Bromo-1-(pyridin-4-ylmethyl)-3′-(4-(trifluoromethoxy)phenyl)-1′H-spiro[piperidine-4,2′-quinazolin]-4′(3′H)-one] was 5.00 to 6.00; that for `CCC(c1ccc(F)c(F)c1)N1CCC2(CC1)Nc1cc(Br)ccc1C(=O)N2c1ccc(OC(F)(F)F)cc1` (stereo not shown) [Compound 22, 7′-Bromo-1-(1-(3,4-difluorophenyl)propyl)-3′-(4-(trifluoromethoxy)phenyl)-1′H-spiro[piperidine-4,2′-quinazolin]-4′(3′H)-one] was more than 6.00; that for `COc1ccc(N2C(=O)c3ccc(-c4ccccn4)cc3NC23CCN(Cc2ccc(F)c(F)c2)CC3)cc1` [Compound 73, 1-(3,4-Difluorobenzyl)-3′-(4-methoxyphenyl)-7′-(pyridin-2-yl)-1′H-spiro[piperidine-4,2′-quinazolin]-4′(3′H)-one] was 5.00 to 6.00.
The same measure for `O=C(OCC1CC1)c1ccc2c(c1)NC1(CCN(Cc3ccc(F)c(F)c3)CC1)N(c1ccc(OC(F)(F)F)cc1)C2=O` [Compound 58, Cyclopropylmethyl 1-(3,4-difluorobenzyl)-4′-oxo-3′-(4-(trifluoromethoxy)phenyl)-3′,4′-dihydro-1′H-spiro[piperidine-4,2′-quinazoline]-7′-carboxylate]: more than 6.00.
The same measure for `COc1ccc(N2C(=O)c3ccccc3NC23CCN(Cc2ccc(Cl)c(Cl)c2)CC3)cc1` [Compound 54, 1-(3,4-Dichlorobenzyl)-3′-(4-methoxyphenyl)-1′H-spiro[piperidine-4,2′-quinazolin]-4′(3′H)-one]: more than 6.00.
